{"source": "patent US4394446A", "about": "“Process for the preparation of the antibiotic oxanosine” (Zaidan Hojin Biseibutsu Kagaku Kenkyu Kai, priority 1980, dated 1983)", "key": {"Escherichia coli K-12 [1]": {"test_system": "Escherichia coli K-12", "assay": "Antimicrobial spectrum in 0.5% peptone agar", "type": "cell-based", "conditions": "K12, read-out: Minimum Growth Inhibition Concentration"}, "Proteus rettgeri GN 311": {"test_system": "Proteus rettgeri GN 311", "assay": "Antimicrobial spectrum in 0.5% peptone agar", "type": "cell-based", "conditions": "Providencia rettgeri, GN311, read-out: Minimum Growth Inhibition Concentration"}, "Solubility in solvents": {"assay": "Solubility in solvents", "type": "physicochemical"}, "[2]": {"test_system": "Pseudomonas aeruginosa A3", "assay": "Antimicrobial spectrum in 0.5% peptone agar", "type": "cell-based", "conditions": "read-out: Minimum Growth Inhibition Concentration"}, "[3]": {"test_system": "Shigella dysenteriae JS 11910", "assay": "Antimicrobial spectrum in 0.5% peptone agar", "type": "cell-based", "conditions": "JS11910, read-out: Minimum Growth Inhibition Concentration"}, "HeLa": {"test_system": "HeLa", "assay": "Anti-HeLa activity", "type": "cell-based", "conditions": "72 hours' culturing", "method": "*number of cells after 72 hours' culturing in the presence of oxanosine"}, "Sarcina lutea PCI 1001": {"test_system": "Sarcina lutea PCI 1001", "assay": "Antimicrobial spectrum in 0.5% peptone agar", "type": "cell-based", "conditions": "Micrococcus luteus, PCI1001, read-out: Minimum Growth Inhibition Concentration"}, "[4]": {"test_system": "Shigella flexneri 4B JS 11811", "assay": "Antimicrobial spectrum in 0.5% peptone agar", "type": "cell-based", "conditions": "4BJS11811, read-out: Minimum Growth Inhibition Concentration"}, "[5]": {"test_system": "Proteus mirabilis IFM OM-9", "assay": "Antimicrobial spectrum in 0.5% peptone agar", "type": "cell-based", "conditions": "IFMOM9, read-out: Minimum Growth Inhibition Concentration"}, "Gram-negative bacteria": {"test_system": "Gram-negative bacteria", "assay": "Antimicrobial spectrum, summary", "type": "cell-based", "conditions": "0.5% peptone agar; words"}, "[6]": {"test_system": "Escherichia coli ML1629 (multi-resistant strain)", "assay": "Antimicrobial spectrum in 0.5% peptone agar", "type": "cell-based", "conditions": "read-out: Minimum Growth Inhibition Concentration"}, "[7]": {"assay": "Carcinostatic activity (general statement)", "conditions": "words"}, "Serratia marcescens": {"test_system": "Serratia marcescens", "assay": "Antimicrobial spectrum in 0.5% peptone agar", "type": "cell-based", "conditions": "read-out: Minimum Growth Inhibition Concentration"}, "Proteus vulgaris OX 19": {"test_system": "Proteus vulgaris OX 19", "assay": "Antimicrobial spectrum in 0.5% peptone agar", "type": "cell-based", "conditions": "OX19, read-out: Minimum Growth Inhibition Concentration"}, "[8]": {"test_system": "Salmonella enteritidis 1891", "assay": "Antimicrobial spectrum in 0.5% peptone agar", "type": "cell-based", "conditions": "Salmonella enterica, read-out: Minimum Growth Inhibition Concentration"}, "Proteus rettgeri GN 466": {"test_system": "Proteus rettgeri GN 466", "assay": "Antimicrobial spectrum in 0.5% peptone agar", "type": "cell-based", "conditions": "Providencia rettgeri, GN466, read-out: Minimum Growth Inhibition Concentration"}, "Mouse Leukemia L-1210": {"test_system": "Mouse Leukemia L-1210", "assay": "Effect against mouse leukemia L-1210, life-prolonging effect", "type": "in vivo, mouse (female, CDF series)", "conditions": "ip, once each day for 9 days", "method": "Cells (1×10^5) of leukemia L-1210 were intraperitoneally implanted in each of several groups of 8-week-old female mice of the CDF series (5 mice for each group), a solution of oxanosine in a physiological saline solution was intraperitoneally administered once each day for 9 days, and the carcinostatic effect was evaluated based on the life-prolonging effect (T/C, %)."}, "Candida albicans 3147": {"test_system": "Candida albicans 3147", "assay": "Antimicrobial spectrum in 0.5% peptone agar", "type": "cell-based", "conditions": "read-out: Minimum Growth Inhibition Concentration"}, "[9]": {"test_system": "Bacillus subtilis NRRLB-558", "assay": "Antimicrobial spectrum in 0.5% peptone agar", "type": "cell-based", "conditions": "NRRLB558, read-out: Minimum Growth Inhibition Concentration"}, "[10]": {"assay": "Acute toxicity in the mouse", "type": "in vivo", "conditions": "iv"}, "[11]": {"test_system": "Klebsiella pneumoniae PCI 602", "assay": "Antimicrobial spectrum in 0.5% peptone agar", "type": "cell-based", "conditions": "PCI602, read-out: Minimum Growth Inhibition Concentration"}, "[12]": {"test_system": "Staphylococcus aureus FDA 209P", "assay": "Antimicrobial spectrum in 0.5% peptone agar", "type": "cell-based", "conditions": "FDA209P, read-out: Minimum Growth Inhibition Concentration"}, "Shigella sonnei JS 11746": {"test_system": "Shigella sonnei JS 11746", "assay": "Antimicrobial spectrum in 0.5% peptone agar", "type": "cell-based", "conditions": "JS11746, read-out: Minimum Growth Inhibition Concentration"}, "Escherichia coli NIHJ": {"test_system": "Escherichia coli NIHJ", "assay": "Antimicrobial spectrum in 0.5% peptone agar", "type": "cell-based", "conditions": "read-out: Minimum Growth Inhibition Concentration"}, "[13]": {"test_system": "Corynebacterium bovis 1810", "assay": "Antimicrobial spectrum in 0.5% peptone agar", "type": "cell-based", "conditions": "read-out: Minimum Growth Inhibition Concentration"}, "Salmonella typhi T-63": {"test_system": "Salmonella typhi T-63", "assay": "Antimicrobial spectrum in 0.5% peptone agar", "type": "cell-based", "conditions": "Salmonella enterica, read-out: Minimum Growth Inhibition Concentration"}, "Gram-positive bacteria": {"test_system": "Gram-positive bacteria", "assay": "Antimicrobial spectrum, summary", "type": "cell-based", "conditions": "0.5% peptone agar; words"}, "[14]": {"test_system": "Bacillus subtilis PCI 219", "assay": "Antimicrobial spectrum in 0.5% peptone agar", "type": "cell-based", "conditions": "PCI219, read-out: Minimum Growth Inhibition Concentration"}, "[15]": {"assay": "Antiviral activity (general statement)", "conditions": "words, no test described"}, "[16]": {"test_system": "Staphylococcus aureus, Smith strain", "assay": "Antimicrobial spectrum in 0.5% peptone agar", "type": "cell-based", "conditions": "read-out: Minimum Growth Inhibition Concentration"}, "Escherichia coli K-12 [17]": {"test_system": "Escherichia coli K-12", "assay": "Titer by cup method on peptone-agar plate", "type": "cell-based", "conditions": "crystals; titer of culture filtrate designated as 1 u/ml", "method": "Sakaguchi flasks (500 ml capacity) for a reciprocating type shaking machine were charged with 125 ml of a culture medium (pH value=7.0) comprising 1% of glucose, 1% of glycerol, 1% of sucrose, 0.5% of oat meal, 2% of soybean meal (Prorich supplied by Ajinomoto K.K.), 1% of pressed yeast (supplied by Oriental Kobo Kogyo K.K.), 0.5% of Casamino acid (supplied by Difco Co.) and 0.1% of calcium carbonate, and the culture medium was sterilized at 120° C. for 20 minutes in an autoclave. The culture medium in each was inoculated with one platinum loop of MG265-CF3 (Fermentation Research Institute Deposit No. 5735), and culturing was carried out for 2 days at 28° C. with shaking at 120 rpm. […] (The titer was determined according to the cup method using Escherichia coli K-12 as a test organism on peptone-agar plate, and the titer of the culture filtrate was designated as 1 u/ml.) The filtrate was passed through a column packed with 500 ml of active carbon powder for chromatography (supplied by Wako Junyaku) to absorb the oxanosine on the active carbon. […]"}, "[18]": {"test_system": "Micrococcus flavis FDA 16", "assay": "Antimicrobial spectrum in 0.5% peptone agar", "type": "cell-based", "conditions": "FDA16, read-out: Minimum Growth Inhibition Concentration"}, "[19]": {"test_system": "Mycobacterium smegmatis 607", "assay": "Antimicrobial spectrum in 0.5% peptone agar", "type": "cell-based", "conditions": "Mycolicibacterium smegmatis, read-out: Minimum Growth Inhibition Concentration"}}, "note": "Entries after “also recorded” stand apart in the source; their conditions may differ.", "data": [{"smiles": "Nc1nc2c(ncn2[C@@H]2O[C@H](CO)[C@@H](O)[C@H]2O)c(=O)o1", "note": "[oxanosine]", "values": [{"measurement": "MIC", "setting": "Escherichia coli K-12 [1]", "result": 12.5, "unit": "µg/mL"}, {"measurement": "MIC", "setting": "Proteus rettgeri GN 311", "result": "> 100", "unit": "µg/mL"}, {"measurement": "Solubility in Solvents", "setting": "Solubility in solvents; organic solvents such as ethanol, acetone, ethyl acetate (b147 only), ether, benzene", "result": "insoluble or only slightly soluble"}, {"measurement": "Solubility in Solvents", "setting": "Solubility in solvents; water, methanol and dimethylsulfoxide", "result": "Soluble"}, {"measurement": "MIC", "setting": "[2]", "result": "> 100", "unit": "µg/mL"}, {"measurement": "MIC", "setting": "[3]", "result": 25, "unit": "µg/mL"}, {"measurement": "Cells", "setting": "HeLa; 0.1 mcg/ml", "result": "11.70 × 10^5 /plate"}, {"measurement": "Cells", "setting": "HeLa; 1 mcg/ml", "result": "10.31 × 10^5 /plate"}, {"measurement": "Cells", "setting": "HeLa; 10 mcg/ml", "result": "8.68 × 10^5 /plate"}, {"measurement": "Cells", "setting": "HeLa; 100 mcg/ml", "result": "1.08 × 10^5 /plate"}, {"measurement": "inhibition at 0.1 µg/mL", "setting": "HeLa; Homo sapiens, HeLa, 0.1 mcg/ml, read-out: Percent Inhibition", "result": 1.76, "unit": "%"}, {"measurement": "inhibition at 1 µg/mL", "setting": "HeLa; Homo sapiens, HeLa, 1 mcg/ml, read-out: Percent Inhibition", "result": 15.3, "unit": "%"}, {"measurement": "inhibition at 10 µg/mL", "setting": "HeLa; Homo sapiens, HeLa, 10 mcg/ml, read-out: Percent Inhibition", "result": 31.2, "unit": "%"}, {"measurement": "inhibition at 100 µg/mL", "setting": "HeLa; Homo sapiens, HeLa, 100 mcg/ml, read-out: Percent Inhibition", "result": 100, "unit": "%"}, {"measurement": "IC50", "setting": "HeLa; Homo sapiens, HeLa", "result": "~30.9", "unit": "µg/mL"}, {"measurement": "MIC", "setting": "Sarcina lutea PCI 1001", "result": "> 100", "unit": "µg/mL"}, {"measurement": "MIC", "setting": "[4]", "result": 6.25, "unit": "µg/mL"}, {"measurement": "MIC", "setting": "[5]", "result": 12.5, "unit": "µg/mL"}, {"measurement": "growth-inhibiting action against Gram-negative bacteria", "setting": "Gram-negative bacteria", "result": "relatively strong growth-inhibiting action; also recorded: relatively strong inhibitory activity"}, {"measurement": "MIC", "setting": "[6]", "result": 25, "unit": "µg/mL"}, {"measurement": "carcinostatic activity", "setting": "[7]", "result": "has carcinostatic and antiviral activity; also recorded: has carcinostatic and antiviral actions"}, {"measurement": "MIC", "setting": "Serratia marcescens", "result": "> 100", "unit": "µg/mL"}, {"measurement": "MIC", "setting": "Proteus vulgaris OX 19", "result": 25, "unit": "µg/mL"}, {"measurement": "MIC", "setting": "[8]", "result": "> 100", "unit": "µg/mL"}, {"measurement": "MIC", "setting": "Proteus rettgeri GN 466", "result": 12.5, "unit": "µg/mL"}, {"measurement": "Life-Prolonging Effect (T/C, %)", "setting": "Mouse Leukemia L-1210; 62.5 μg/mouse/day", "result": 100, "unit": "%"}, {"measurement": "Life-Prolonging Effect (T/C, %)", "setting": "Mouse Leukemia L-1210; 125 μg/mouse/day", "result": 120, "unit": "%"}, {"measurement": "Life-Prolonging Effect (T/C, %)", "setting": "Mouse Leukemia L-1210; 250 μg/mouse/day", "result": 120, "unit": "%"}, {"measurement": "Life-Prolonging Effect (T/C, %)", "setting": "Mouse Leukemia L-1210; 500 μg/mouse/day", "result": 153, "unit": "%"}, {"measurement": "Life-Prolonging Effect (T/C, %)", "setting": "Mouse Leukemia L-1210; 1000 μg/mouse/day", "result": 160, "unit": "%"}, {"measurement": "life-prolonging effect in leukemia L-1210 tumor-bearing mice", "setting": "Mouse Leukemia L-1210; words", "result": "has a life-prolonging effect"}, {"measurement": "MIC", "setting": "Candida albicans 3147", "result": "> 100", "unit": "µg/mL"}, {"measurement": "MIC", "setting": "[9]", "result": "> 100", "unit": "µg/mL"}, {"measurement": "LD50", "setting": "[10]; in vivo", "result": "> 200", "unit": "mg/kg"}, {"measurement": "acute toxicity compared with various known nucleic acid type antibiotic substances", "setting": "[10]; words", "result": "lower than those of various known nucleic acid type antibiotic substances"}, {"measurement": "MIC", "setting": "[11]", "result": "> 100", "unit": "µg/mL"}, {"measurement": "MIC", "setting": "[12]", "result": "> 100", "unit": "µg/mL"}, {"measurement": "MIC", "setting": "Shigella sonnei JS 11746", "result": 25, "unit": "µg/mL"}, {"measurement": "MIC", "setting": "Escherichia coli NIHJ", "result": "> 100", "unit": "µg/mL"}, {"measurement": "MIC", "setting": "[13]", "result": "> 100", "unit": "µg/mL"}, {"measurement": "MIC", "setting": "Salmonella typhi T-63", "result": "> 100", "unit": "µg/mL"}, {"measurement": "growth-inhibiting action against Gram-positive bacteria", "setting": "Gram-positive bacteria", "result": "does not show growth-inhibiting action"}, {"measurement": "MIC", "setting": "[14]", "result": "> 100", "unit": "µg/mL"}, {"measurement": "antiviral activity", "setting": "[15]", "result": "has carcinostatic and antiviral activity; also recorded: has carcinostatic and antiviral actions"}, {"measurement": "MIC", "setting": "[16]", "result": "> 100", "unit": "µg/mL"}, {"measurement": "titer", "setting": "Escherichia coli K-12 [17]", "result": 117, "unit": "u/mg"}, {"measurement": "MIC", "setting": "[18]", "result": "> 100", "unit": "µg/mL"}, {"measurement": "MIC", "setting": "[19]", "result": "> 100", "unit": "µg/mL"}]}]}
